Results reported in ChEMBL document CHEMBL4330132, “5-Keto-3-cyano-2,4-diaminothiophenes as selective maternal embryonic leucine zipper kinase inhibitors” (Bioorg Med Chem Lett, 2019).

Experiments:
[1] = target: Tyrosine-protein kinase receptor UFO (Homo sapiens) (UniProt P30530); assay: Binding affinity to wild-type human partial length AXL (R497 to Y821 residues) expressed in bacterial expression system assessed as residual binding level at 1 uM by Kinomescan method relative to control
[2] = target: RAC-gamma serine/threonine-protein kinase (Homo sapiens) (UniProt Q9Y243); assay: Binding affinity to wild-type human partial length AKT3 expressed in bacterial expression system assessed as residual binding level at 1 uM by Kinomescan method relative to control
[3] = target: Tyrosine-protein kinase Blk (Homo sapiens) (UniProt P51451); assay: Binding affinity to wild-type human partial length BLK (G211 to L503 residues) expressed in bacterial expression system assessed as residual binding level at 1 uM by Kinomescan method relative to control
[4] = target: Cyclin-G-associated kinase (Homo sapiens) (UniProt O14976); assay: Binding affinity to wild-type human partial length GAK (G13 to Y338 residues) expressed in bacterial expression system assessed as residual binding level at 1 uM by Kinomescan method relative to control
[5] = target: Casein kinase I isoform gamma-2 (Homo sapiens) (UniProt P78368); assay: Binding affinity to wild-type human full length CSNK1G2 (M1 to K415 residues) expressed in bacterial expression system assessed as residual binding level at 1 uM by Kinomescan method relative to control
[6] = target: Serine/threonine-protein kinase SBK1 (Homo sapiens) (UniProt Q52WX2); assay: Binding affinity to wild-type human partial length SBK1 (P23 to P348 residues) expressed in mammalian expression system assessed as residual binding level at 1 uM by Kinomescan method relative to control
[7] = target: Dual specificity protein kinase CLK2 (Homo sapiens) (UniProt P49760); assay: Binding affinity to wild-type human partial length CLK2 (D144 to R498 residues) expressed in bacterial expression system assessed as residual binding level at 1 uM by Kinomescan method relative to control
[8] = system: Serine/threonine-protein kinase B-raf (Homo sapiens), P15056 [V600E]; assay: Binding affinity to human partial length BRAF V600E mutant (S429 to E741 residues) expressed in mammalian expression system assessed as residual binding level at 1 uM by Kinomescan method relative to control
[9] = target: Casein kinase I isoform gamma-1 (Homo sapiens) (UniProt Q9HCP0); assay: Binding affinity to wild-type human partial length CSNK1G1 (T15 to S353 residues) expressed in bacterial expression system assessed as residual binding level at 1 uM by Kinomescan method relative to control
[10] = target: Mitogen-activated protein kinase kinase kinase 4 (Homo sapiens) (UniProt Q9Y6R4); assay: Binding affinity to wild-type human partial length MAP3K4 (G1319 to E1608 residues) expressed in bacterial expression system assessed as residual binding level at 1 uM by Kinomescan method relative to control
[11] = target: Cyclin-dependent kinase 17 (Homo sapiens) (UniProt Q00537); assay: Binding affinity to wild-type human full length PCTK2 (M1 to F523 residues) expressed in bacterial expression system assessed as residual binding level at 1 uM by Kinomescan method relative to control
[12] = target: Ribosomal protein S6 kinase alpha-6 (Homo sapiens) (UniProt Q9UK32); assay: Binding affinity to wild-type human partial length N-terminal RSK4 kinase domain 1 (M1 to E397 residues) expressed in mammalian expression system assessed as residual binding level at 1 uM by Kinomescan method relative to control
[13] = target: Mitogen-activated protein kinase kinase kinase 3 (Homo sapiens) (UniProt Q99759); assay: Binding affinity to wild-type human partial length MAP3K3 (E320 to Y626 residues) expressed in mammalian expression system assessed as residual binding level at 1 uM by Kinomescan method relative to control
[14] = target: Death-associated protein kinase 3 (Homo sapiens) (UniProt O43293); assay: Binding affinity to wild-type human partial length DAPK3 (M1 to A277 residues) expressed in bacterial expression system assessed as residual binding level at 1 uM by Kinomescan method relative to control
[15] = target: Calcium/calmodulin-dependent protein kinase type 1D (Homo sapiens) (UniProt Q8IU85); assay: Binding affinity to wild-type human partial length CAMK1D (M1 to K299 residues) expressed in bacterial expression system assessed as residual binding level at 1 uM by Kinomescan method relative to control
[16] = target: Tyrosine-protein kinase Tec (Homo sapiens) (UniProt P42680); assay: Binding affinity to wild-type human partial length TEC (L341 to D620 residues) expressed in bacterial expression system assessed as residual binding level at 1 uM by Kinomescan method relative to control
[17] = target: RAF proto-oncogene serine/threonine-protein kinase (Homo sapiens) (UniProt P04049); assay: Binding affinity to wild-type human partial length RAF1 (I330 to T640 residues) expressed in bacterial expression system assessed as residual binding level at 1 uM by Kinomescan method relative to control
[18] = target: Dual specificity protein kinase CLK3 (Homo sapiens) (UniProt P49761); assay: Binding affinity to wild-type human full length CLK3 (M1 to R490 residues) expressed in bacterial expression system assessed as residual binding level at 1 uM by Kinomescan method relative to control
[19] = target: Serine/threonine-protein kinase 32A (Homo sapiens) (UniProt Q8WU08); assay: Binding affinity to wild-type human full length YANK1 (M1 to L396 residues) expressed in mammalian expression system assessed as residual binding level at 1 uM by Kinomescan method relative to control
[20] = target: Muscle, skeletal receptor tyrosine-protein kinase (Homo sapiens) (UniProt O15146); assay: Binding affinity to wild-type human partial length MUSK (M553 to V869 residues) expressed in bacterial expression system assessed as residual binding level at 1 uM by Kinomescan method relative to control
[21] = target: Mitogen-activated protein kinase 13 (Homo sapiens) (UniProt O15264); assay: Binding affinity to wild-type human full length p38-delta (M1 to L365 residues) expressed in bacterial expression system assessed as residual binding level at 1 uM by Kinomescan method relative to control
[22] = target: Ribosomal protein S6 kinase beta-1 (Homo sapiens) (UniProt P23443); assay: Binding affinity to wild-type human partial length S6K1 (M1 to S421 residues) expressed in mammalian expression system assessed as residual binding level at 1 uM by Kinomescan method relative to control
[23] = target: Maternal embryonic leucine zipper kinase (Homo sapiens, UniProt Q14680); assay: Binding affinity to wild-type human full length MELK (M1 to V651 residues) expressed in bacterial expression system assessed as residual binding level at 1 uM by Kinomescan method relative to control
[24] = target: Serine/threonine-protein kinase Nek1 (Homo sapiens) (UniProt Q96PY6); assay: Binding affinity to wild-type human partial length NEK1 (M1 to K278 residues) expressed in bacterial expression system assessed as residual binding level at 1 uM by Kinomescan method relative to control
[25] = target: Casein kinase I isoform gamma-3 (Homo sapiens) (UniProt Q9Y6M4); assay: Binding affinity to wild-type human full length CSNK1G3 (M1 to K447 residues) expressed in bacterial expression system assessed as residual binding level at 1 uM by Kinomescan method relative to control

Chain of Mitogen-activated protein kinase 13 (Homo sapiens) (O15264 whole entry, the tested form may be a part): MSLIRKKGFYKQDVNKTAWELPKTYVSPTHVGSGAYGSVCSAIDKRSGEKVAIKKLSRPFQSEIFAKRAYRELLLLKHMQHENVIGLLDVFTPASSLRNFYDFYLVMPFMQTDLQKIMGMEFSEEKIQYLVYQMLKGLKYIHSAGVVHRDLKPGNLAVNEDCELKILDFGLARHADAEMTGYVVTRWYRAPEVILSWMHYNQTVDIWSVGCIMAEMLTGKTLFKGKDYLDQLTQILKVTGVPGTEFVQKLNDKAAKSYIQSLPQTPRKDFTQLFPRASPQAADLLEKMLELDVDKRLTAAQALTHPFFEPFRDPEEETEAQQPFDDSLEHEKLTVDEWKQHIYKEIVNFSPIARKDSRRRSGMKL
Chain of Serine/threonine-protein kinase Nek1 (Homo sapiens) (Q96PY6 whole entry, the tested form may be a part, canonical isoform): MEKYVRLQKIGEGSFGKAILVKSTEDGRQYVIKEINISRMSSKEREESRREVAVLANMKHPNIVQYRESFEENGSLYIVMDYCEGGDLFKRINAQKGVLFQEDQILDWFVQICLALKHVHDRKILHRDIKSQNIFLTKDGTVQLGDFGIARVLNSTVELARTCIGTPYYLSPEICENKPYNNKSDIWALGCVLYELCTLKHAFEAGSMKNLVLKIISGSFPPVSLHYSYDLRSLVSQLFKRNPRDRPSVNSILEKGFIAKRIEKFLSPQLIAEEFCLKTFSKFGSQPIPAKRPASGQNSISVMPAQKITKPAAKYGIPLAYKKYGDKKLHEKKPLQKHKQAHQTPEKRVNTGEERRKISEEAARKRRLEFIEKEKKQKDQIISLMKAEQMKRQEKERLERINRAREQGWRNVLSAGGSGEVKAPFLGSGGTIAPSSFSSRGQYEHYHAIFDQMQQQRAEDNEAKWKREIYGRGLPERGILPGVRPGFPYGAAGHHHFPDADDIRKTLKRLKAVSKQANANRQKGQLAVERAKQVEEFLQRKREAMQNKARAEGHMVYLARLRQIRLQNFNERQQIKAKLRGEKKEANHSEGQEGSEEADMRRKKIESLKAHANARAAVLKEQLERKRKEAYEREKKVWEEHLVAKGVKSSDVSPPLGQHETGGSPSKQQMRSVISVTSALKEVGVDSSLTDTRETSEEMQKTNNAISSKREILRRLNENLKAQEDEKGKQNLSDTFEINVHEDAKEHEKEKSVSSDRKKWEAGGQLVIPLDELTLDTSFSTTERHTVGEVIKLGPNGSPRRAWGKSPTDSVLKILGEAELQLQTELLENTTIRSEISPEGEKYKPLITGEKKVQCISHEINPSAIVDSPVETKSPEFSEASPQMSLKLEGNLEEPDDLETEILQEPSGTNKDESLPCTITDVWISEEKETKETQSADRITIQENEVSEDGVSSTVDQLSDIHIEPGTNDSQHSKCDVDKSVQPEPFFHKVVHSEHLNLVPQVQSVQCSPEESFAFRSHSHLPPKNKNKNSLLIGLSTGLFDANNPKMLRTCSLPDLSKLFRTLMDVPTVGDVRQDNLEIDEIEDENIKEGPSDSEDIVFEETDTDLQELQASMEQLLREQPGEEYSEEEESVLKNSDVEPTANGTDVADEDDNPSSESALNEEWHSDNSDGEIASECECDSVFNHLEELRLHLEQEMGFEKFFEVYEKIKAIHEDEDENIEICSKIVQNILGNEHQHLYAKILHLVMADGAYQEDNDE
Chain of Mitogen-activated protein kinase kinase kinase 3 (Homo sapiens) (Q99759 whole entry, the tested form may be a part): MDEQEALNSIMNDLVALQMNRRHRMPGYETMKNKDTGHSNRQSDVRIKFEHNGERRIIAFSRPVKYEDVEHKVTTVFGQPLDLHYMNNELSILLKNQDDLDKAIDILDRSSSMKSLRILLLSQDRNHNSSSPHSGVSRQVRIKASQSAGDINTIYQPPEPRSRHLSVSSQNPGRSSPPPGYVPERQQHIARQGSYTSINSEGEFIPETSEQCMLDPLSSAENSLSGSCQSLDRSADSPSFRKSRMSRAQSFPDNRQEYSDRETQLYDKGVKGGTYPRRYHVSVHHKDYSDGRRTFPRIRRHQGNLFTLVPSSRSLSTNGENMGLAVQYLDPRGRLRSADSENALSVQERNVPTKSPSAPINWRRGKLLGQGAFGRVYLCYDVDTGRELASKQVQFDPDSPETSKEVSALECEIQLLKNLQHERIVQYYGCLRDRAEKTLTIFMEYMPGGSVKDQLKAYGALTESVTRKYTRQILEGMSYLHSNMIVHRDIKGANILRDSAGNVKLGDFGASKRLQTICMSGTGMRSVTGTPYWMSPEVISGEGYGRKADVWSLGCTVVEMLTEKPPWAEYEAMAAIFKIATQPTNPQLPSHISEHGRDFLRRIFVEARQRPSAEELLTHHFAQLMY
Chain of Tyrosine-protein kinase Tec (Homo sapiens) (P42680 whole entry, the tested form may be a part): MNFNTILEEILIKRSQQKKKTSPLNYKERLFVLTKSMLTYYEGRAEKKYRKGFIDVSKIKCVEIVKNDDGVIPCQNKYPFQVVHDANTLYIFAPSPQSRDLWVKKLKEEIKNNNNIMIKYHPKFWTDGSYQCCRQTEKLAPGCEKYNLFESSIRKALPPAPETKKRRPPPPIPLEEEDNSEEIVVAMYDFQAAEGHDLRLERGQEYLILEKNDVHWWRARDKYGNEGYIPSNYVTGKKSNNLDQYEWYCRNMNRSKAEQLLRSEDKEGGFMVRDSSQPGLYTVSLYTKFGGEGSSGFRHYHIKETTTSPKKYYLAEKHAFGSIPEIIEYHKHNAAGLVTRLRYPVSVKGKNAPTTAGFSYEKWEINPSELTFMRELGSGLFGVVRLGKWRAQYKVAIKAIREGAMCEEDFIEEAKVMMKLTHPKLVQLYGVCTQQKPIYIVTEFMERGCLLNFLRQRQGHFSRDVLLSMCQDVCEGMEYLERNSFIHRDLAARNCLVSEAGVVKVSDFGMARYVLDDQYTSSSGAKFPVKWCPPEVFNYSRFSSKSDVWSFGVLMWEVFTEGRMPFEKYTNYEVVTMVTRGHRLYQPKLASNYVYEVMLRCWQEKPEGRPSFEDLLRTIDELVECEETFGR
Chain of RAC-gamma serine/threonine-protein kinase (Homo sapiens) (Q9Y243 whole entry, the tested form may be a part): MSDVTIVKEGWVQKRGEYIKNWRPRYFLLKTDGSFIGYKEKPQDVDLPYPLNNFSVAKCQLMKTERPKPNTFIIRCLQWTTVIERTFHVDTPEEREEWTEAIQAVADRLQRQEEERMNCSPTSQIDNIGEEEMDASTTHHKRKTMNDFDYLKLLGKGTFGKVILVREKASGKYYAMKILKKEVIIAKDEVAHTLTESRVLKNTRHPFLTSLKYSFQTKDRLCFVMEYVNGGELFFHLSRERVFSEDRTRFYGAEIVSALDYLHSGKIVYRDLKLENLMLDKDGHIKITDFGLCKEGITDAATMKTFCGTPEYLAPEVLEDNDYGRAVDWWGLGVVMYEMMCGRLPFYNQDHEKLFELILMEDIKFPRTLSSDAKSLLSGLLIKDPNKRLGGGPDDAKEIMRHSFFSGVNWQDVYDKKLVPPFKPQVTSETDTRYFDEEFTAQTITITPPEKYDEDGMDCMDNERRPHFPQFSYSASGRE
Chain of Cyclin-G-associated kinase (Homo sapiens) (O14976 whole entry, the tested form may be a part, canonical isoform): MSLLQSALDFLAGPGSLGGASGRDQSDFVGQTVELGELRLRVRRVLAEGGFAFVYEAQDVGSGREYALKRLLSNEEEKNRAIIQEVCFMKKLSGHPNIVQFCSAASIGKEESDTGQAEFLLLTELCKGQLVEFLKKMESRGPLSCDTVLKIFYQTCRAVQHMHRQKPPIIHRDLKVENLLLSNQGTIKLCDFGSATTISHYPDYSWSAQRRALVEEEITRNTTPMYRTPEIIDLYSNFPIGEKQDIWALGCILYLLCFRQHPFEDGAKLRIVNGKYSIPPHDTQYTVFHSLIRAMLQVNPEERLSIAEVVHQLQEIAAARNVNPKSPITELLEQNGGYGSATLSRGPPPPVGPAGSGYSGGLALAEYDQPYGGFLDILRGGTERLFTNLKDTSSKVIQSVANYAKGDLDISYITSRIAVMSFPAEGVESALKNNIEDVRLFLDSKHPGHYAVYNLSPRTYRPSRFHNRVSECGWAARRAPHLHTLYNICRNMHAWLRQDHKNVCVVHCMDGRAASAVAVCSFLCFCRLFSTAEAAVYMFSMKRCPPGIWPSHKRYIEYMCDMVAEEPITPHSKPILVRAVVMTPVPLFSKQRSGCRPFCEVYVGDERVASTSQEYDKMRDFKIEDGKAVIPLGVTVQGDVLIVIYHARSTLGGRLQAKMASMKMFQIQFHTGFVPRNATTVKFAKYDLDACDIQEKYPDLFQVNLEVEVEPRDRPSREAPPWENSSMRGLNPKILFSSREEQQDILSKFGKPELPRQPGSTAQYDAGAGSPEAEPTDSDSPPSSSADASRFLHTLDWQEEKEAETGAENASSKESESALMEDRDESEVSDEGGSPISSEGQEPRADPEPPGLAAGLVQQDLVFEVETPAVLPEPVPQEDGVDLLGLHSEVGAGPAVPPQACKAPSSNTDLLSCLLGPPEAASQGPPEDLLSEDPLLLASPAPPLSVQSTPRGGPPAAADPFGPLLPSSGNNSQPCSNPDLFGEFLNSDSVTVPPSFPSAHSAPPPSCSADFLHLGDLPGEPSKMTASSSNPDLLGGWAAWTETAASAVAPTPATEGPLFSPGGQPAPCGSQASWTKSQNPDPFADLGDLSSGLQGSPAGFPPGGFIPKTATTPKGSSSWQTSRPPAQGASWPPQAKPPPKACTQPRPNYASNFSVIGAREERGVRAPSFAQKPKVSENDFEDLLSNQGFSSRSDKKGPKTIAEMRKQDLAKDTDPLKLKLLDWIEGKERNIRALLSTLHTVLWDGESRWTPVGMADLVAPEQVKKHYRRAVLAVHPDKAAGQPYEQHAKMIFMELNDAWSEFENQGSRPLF
Chain of Serine/threonine-protein kinase 32A (Homo sapiens) (Q8WU08 whole entry, the tested form may be a part): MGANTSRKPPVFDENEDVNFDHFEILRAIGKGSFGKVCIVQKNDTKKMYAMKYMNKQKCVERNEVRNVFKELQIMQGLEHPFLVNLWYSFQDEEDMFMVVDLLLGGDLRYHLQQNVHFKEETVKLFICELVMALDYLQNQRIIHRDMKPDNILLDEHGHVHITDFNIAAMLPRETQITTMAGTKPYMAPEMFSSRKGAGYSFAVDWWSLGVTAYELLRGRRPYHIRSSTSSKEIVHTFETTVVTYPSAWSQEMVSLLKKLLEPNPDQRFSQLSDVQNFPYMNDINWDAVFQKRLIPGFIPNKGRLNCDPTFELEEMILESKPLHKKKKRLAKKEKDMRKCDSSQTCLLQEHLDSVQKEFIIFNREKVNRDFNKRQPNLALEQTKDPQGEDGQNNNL

## CC(C)Nc1sc(C(=O)c2ccc(Cl)s2)c(N)c1C#N
[1]
  Activity: 89%
[2]
  Activity: 100%
[3]
  Activity: 60%
[4]
  Activity: 24%
[5]
  Activity: 74%
[6]
  Activity: 100%
[7]
  Activity: 60%
[8]
  Activity: 97%
[9]
  Activity: 95%
[10]
  Activity: 100%
[11]
  Activity: 87%
[12]
  Activity: 81%
[13]
  Activity: 100%
[14]
  Activity: 74%
[15]
  Activity: 94%
[16]
  Activity: 94%
[17]
  Activity: 71%
[18]
  Activity: 74%
[19]
  Activity: 98%
[20]
  Activity: 76%
[21]
  Activity: 100%
[22]
  Activity: 93%
[23]
  Activity: 14%
[24]
  Activity: 79%
[25]
  Activity: 77%
